Reference: patent US20240166635A1, “AMINOHETEROARYL KINASE INHIBITORS” (Anrui Biomedical Technology (Guangzhou) Co.,Ltd., priority 2020, published 2024)

Tests used:
Format in all cases: biochemical
[1] = biological target: CDK2/CyclinE1 (Homo sapiens (Human), UniProt P24941); experiment: CDK2/CyclinE1 kinase inhibitory activity (Caliper mobility shift); conditions: read-out: CDK2/Cyclin El IC50
[2] = biological target: CDK1/CyclinB (Homo sapiens (Human), UniProt P06493); experiment: CDK1/CyclinB kinase inhibitory activity (Caliper mobility shift); conditions: read-out: CDK1/Cyclin B1 IC50
Chain of CDK1/CyclinB (P06493 whole entry): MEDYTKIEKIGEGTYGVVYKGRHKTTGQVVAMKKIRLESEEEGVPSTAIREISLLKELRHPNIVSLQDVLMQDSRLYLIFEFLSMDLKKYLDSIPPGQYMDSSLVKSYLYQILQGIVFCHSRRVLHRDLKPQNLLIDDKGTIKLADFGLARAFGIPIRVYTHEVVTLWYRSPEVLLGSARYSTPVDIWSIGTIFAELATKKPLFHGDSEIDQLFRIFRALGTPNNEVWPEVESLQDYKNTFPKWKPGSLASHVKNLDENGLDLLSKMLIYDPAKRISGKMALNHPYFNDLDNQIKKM
Chain of CDK1/CyclinB (P14635 whole entry partner): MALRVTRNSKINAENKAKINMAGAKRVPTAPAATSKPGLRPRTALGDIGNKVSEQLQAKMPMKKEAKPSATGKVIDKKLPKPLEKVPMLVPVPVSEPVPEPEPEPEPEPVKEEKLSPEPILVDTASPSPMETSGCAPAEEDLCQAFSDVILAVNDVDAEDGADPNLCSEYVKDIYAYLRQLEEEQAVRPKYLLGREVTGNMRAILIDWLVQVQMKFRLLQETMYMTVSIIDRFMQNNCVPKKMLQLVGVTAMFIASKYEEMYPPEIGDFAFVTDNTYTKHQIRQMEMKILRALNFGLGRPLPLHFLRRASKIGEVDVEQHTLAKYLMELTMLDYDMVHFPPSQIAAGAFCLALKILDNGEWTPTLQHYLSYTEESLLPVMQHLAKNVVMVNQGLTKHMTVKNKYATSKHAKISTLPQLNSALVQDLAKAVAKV

[3] = biological target: CDK7/CyclinH/MAT1 (Homo sapiens (Human), UniProt P50613); experiment: CDK7/CyclinH/MAT1 kinase inhibitory activity (Caliper mobility shift)
Chain of CDK7/CyclinH/MAT1 (P50613 whole entry): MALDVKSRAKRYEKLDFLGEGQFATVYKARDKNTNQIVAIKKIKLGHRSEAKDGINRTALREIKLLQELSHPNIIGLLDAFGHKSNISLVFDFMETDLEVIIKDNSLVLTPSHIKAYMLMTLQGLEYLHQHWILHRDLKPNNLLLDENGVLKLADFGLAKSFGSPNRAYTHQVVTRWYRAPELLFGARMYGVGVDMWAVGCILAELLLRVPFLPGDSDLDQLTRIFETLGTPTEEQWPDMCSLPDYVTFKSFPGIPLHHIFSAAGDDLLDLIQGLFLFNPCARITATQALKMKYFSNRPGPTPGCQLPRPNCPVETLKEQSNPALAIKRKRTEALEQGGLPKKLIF
Chain of CDK7/CyclinH/MAT1 (P51946 whole entry partner): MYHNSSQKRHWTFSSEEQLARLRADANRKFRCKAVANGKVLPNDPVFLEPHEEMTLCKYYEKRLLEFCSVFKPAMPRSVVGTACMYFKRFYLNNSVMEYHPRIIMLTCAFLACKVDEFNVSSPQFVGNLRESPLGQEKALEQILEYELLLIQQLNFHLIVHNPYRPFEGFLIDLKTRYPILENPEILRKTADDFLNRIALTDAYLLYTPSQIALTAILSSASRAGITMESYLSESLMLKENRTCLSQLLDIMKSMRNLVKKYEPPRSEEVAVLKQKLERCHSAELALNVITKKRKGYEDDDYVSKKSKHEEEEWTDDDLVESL
Chain of CDK7/CyclinH/MAT1 (P51948 whole entry partner): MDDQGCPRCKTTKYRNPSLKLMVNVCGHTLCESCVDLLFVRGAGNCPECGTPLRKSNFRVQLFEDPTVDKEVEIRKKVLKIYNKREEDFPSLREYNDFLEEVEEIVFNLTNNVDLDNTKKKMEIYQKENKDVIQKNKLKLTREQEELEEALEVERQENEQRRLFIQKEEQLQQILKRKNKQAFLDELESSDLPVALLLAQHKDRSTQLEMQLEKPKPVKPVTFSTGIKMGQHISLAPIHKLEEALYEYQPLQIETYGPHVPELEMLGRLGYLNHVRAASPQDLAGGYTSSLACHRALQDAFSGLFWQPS

[4] = biological target: CDK6/CyclinD1 (Homo sapiens (Human), UniProt Q00534); experiment: CDK6/CyclinD1 kinase inhibitory activity (Caliper mobility shift); conditions: read-out: CDK6/Cyclin D1 IC50
Chain of CDK6/CyclinD1 (Q00534 whole entry): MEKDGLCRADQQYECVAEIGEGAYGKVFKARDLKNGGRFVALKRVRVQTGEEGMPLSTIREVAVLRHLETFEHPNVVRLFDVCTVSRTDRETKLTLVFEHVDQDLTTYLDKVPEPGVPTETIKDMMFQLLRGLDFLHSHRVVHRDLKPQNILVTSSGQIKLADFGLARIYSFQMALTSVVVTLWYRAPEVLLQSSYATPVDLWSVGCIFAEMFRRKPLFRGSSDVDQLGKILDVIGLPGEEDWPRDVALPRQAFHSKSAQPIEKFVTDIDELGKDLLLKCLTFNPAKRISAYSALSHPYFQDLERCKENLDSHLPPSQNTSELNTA
Chain of CDK6/CyclinD1 (P24385 whole entry partner): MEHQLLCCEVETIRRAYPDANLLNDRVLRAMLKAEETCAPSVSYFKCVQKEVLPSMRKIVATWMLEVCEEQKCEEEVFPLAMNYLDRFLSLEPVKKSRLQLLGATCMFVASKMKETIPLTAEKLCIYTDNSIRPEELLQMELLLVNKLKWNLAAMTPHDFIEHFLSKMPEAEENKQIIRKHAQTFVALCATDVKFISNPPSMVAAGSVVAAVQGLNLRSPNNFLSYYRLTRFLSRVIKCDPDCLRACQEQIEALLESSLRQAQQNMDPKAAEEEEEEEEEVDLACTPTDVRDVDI

[5] = biological target: CDK9/CyclinT1 (Homo sapiens (Human), UniProt P50750); experiment: CDK9/CyclinT1 kinase inhibitory activity (Caliper mobility shift); conditions: read-out: CDK9/Cyclin T1 IC50
Chain of CDK9/CyclinT1 (P50750 whole entry): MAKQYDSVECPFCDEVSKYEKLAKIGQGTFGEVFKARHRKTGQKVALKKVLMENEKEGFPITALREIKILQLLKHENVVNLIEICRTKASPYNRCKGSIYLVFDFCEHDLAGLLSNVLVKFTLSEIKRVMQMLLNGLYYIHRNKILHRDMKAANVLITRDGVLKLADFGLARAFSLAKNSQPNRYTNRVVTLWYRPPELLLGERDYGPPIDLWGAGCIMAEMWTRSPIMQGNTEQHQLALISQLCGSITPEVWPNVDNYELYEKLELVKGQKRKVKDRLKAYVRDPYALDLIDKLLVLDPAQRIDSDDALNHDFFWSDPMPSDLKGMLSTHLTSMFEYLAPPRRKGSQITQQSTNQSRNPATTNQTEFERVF
Chain of CDK9/CyclinT1 (O60563 whole entry partner): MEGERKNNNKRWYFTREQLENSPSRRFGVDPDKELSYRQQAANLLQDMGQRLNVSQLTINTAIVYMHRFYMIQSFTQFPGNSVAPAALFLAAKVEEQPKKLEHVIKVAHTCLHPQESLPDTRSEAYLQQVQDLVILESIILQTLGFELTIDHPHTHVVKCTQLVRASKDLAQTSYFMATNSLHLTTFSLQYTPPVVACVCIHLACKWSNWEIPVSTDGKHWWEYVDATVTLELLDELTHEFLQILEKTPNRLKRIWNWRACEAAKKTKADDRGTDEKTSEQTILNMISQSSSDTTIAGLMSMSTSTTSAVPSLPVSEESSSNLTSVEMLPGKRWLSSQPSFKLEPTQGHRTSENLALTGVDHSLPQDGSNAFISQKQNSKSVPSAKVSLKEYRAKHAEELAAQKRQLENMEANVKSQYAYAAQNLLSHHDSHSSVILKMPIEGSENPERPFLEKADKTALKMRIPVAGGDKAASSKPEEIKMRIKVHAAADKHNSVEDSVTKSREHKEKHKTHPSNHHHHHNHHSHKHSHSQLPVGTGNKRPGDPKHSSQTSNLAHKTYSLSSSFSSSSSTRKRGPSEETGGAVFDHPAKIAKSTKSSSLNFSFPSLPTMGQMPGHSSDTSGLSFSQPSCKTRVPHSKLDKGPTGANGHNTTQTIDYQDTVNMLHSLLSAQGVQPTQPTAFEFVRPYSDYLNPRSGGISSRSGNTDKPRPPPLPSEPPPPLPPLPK

[6] = biological target: CDK4/Cyclin D1 (Homo sapiens (Human), UniProt P11802); experiment: CDK4/CyclinD1 kinase inhibitory activity (Caliper mobility shift)
Chain of CDK4/Cyclin D1 (P11802 whole entry): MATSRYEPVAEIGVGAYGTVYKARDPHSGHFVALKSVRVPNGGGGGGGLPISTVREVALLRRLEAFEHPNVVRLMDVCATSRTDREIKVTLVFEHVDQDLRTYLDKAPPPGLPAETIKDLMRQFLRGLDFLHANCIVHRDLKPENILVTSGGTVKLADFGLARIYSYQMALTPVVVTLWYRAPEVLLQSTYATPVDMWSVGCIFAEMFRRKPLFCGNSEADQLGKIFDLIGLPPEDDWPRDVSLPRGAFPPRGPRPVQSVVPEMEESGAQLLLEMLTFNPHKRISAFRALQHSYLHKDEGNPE
Chain of CDK4/Cyclin D1 (P24385 whole entry partner): as the sequence (P24385 whole entry partner) above

Compound	IC50 [1] [nM]	IC50 [2] [nM]	IC50 [3] [nM]	IC50 [4] [nM]	IC50 [5] [nM]	IC50 [6] [nM]
CC(C)NS(=O)(=O)c1ccc(Nc2ncc(C#N)c(OC3CCC[C@H]3O)n2)cc1 (mixture of isomers) [Example 27]	< 10	10 to 100	≥ 1000	100 to 1000	100 to 1000	100 to 1000
[2H]C([2H])([2H])NS(=O)(=O)c1ccc(Nc2ncc(CC)c(OC3COCC3(C)O)n2)cc1 (single isomer, unassigned) [Example 150a]	< 10	10 to 100	100 to 1000	100 to 1000	100 to 1000	100 to 1000
CCS(=O)(=O)N1CCC(Nc2ncc(C#N)c(OC3CCCC3(C)O)n2)CC1 (single isomer, unassigned) [Example 36b]	< 10	10 to 100	100 to 1000	10 to 100	100 to 1000	< 10
CNS(=O)(=O)c1ccc(Nc2ncc(Cl)c(OC3CCCC3O)n2)cc1 (single isomer, unassigned) [Example 137a]	< 10	10 to 100	100 to 1000	10 to 100	100 to 1000	100 to 1000
C[C@]1(O)CCC[C@H]1Oc1nc(NC2CCN(S(C)(=O)=O)CC2)ncc1C#N (relative stereo) [Example 3b, cis-4-((2-hydroxy-2-methylcyclopentyl)oxy)-2-((1-(methylsulfonyl)piperidin-4-yl)amino)pyrimidine-5-carbonitrile]	< 10	10 to 100	10 to 100	< 10	100 to 1000	< 10
Cn1ccc(S(=O)(=O)N2CCC(Nc3ncc(C#N)c(OCC4(C)CCCC4)n3)CC2)n1 [Example 63]	< 10	< 10	100 to 1000	< 10	100 to 1000	< 10
N#Cc1cnc(Nc2ccc(S(N)(=O)=O)cc2)nc1N1CCC(O)CC1 [Example 82]	10 to 100	100 to 1000	≥ 1000	100 to 1000	100 to 1000	100 to 1000
CNS(=O)(=O)c1ccc(Nc2ncc(C#N)c(OC3CCCC3(C)O)n2)cc1 (single isomer, unassigned) [Example 34a]	< 10	< 10	10 to 100	10 to 100	100 to 1000	10 to 100
O=S(=O)(NC1CCOCC1)c1ccc(Nc2ncc(Cl)c(O[C@@H]3CCC[C@@H]3O)n2)cc1 (single isomer, unassigned) [Example 130a, cis-4-((5-chloro-4-((2-hydroxycyclopentyl)oxy)pyrimidin-2-yl)amino)-N-(tetrahydro-2H-pyran-4-yl)benzenesulfonamide]	< 10	10 to 100	100 to 1000	100 to 1000	100 to 1000	100 to 1000
CC1(O)COCCC1Oc1nc(NC2CCN(S(C)(=O)=O)CC2)ncc1C#N (single isomer, unassigned) [Example 45a]	< 10	10 to 100	10 to 100	10 to 100	100 to 1000	10 to 100
[2H]C([2H])([2H])NS(=O)(=O)c1ccc(Nc2ncc(C(F)(F)F)c(OC3CCCC3)n2)cc1 [Example 108]	< 10	10 to 100	≥ 1000	100 to 1000	≥ 1000	10 to 100
CCc1cnc(Nc2ccc(S(N)(=O)=O)cc2)nc1O[C@@H]1CCC[C@@H]1O (single isomer, unassigned) [Example 133a, cis-4-((5-ethyl-4-((2-hydroxycyclopentyl)oxy)pyrimidin-2-yl)amino)benzenesulfonamide]	< 10	10 to 100	100 to 1000	10 to 100	10 to 100	100 to 1000
CC1(COc2nc(Nc3ccc(S(N)(=O)=O)cc3)ncc2C#N)CCCC1 [Example 12]	< 10	10 to 100	≥ 1000	100 to 1000	10 to 100	< 10

Next, values leading:

IC50 [1] [nM]	IC50 [2] [nM]	IC50 [3] [nM]	IC50 [4] [nM]	IC50 [5] [nM]	IC50 [6] [nM]	Compound
< 10	10 to 100	100 to 1000	100 to 1000	100 to 1000	100 to 1000	CNS(=O)(=O)c1ccc(Nc2ncc(C(F)(F)F)c(OC3CCCC3O)n2)cc1 (single isomer, unassigned) [Example 105a]
< 10	10 to 100	≥ 1000	100 to 1000	10 to 100	< 10	CNS(=O)(=O)N1CCC(Nc2ncc(C(F)(F)F)c(OC3CCCCCC3)n2)CC1 [Example 129]
< 10	< 10	100 to 1000	10 to 100	100 to 1000	< 10	CC1(COc2nc(NC3CCN(S(N)(=O)=O)CC3)ncc2C#N)CCCC1 [Example 56]
< 10	< 10	< 10	< 10	10 to 100	< 10	Cn1cc(S(=O)(=O)N2CCC(Nc3ncc(C(F)(F)F)c(OC4CCOCC4(C)O)n3)CC2)cn1 (single isomer, unassigned) [Example 125a]
< 10	< 10	100 to 1000	100 to 1000	10 to 100	10 to 100	CC(C)NS(=O)(=O)c1ccc(Nc2ncc(C(F)(F)F)c(OC3CCCC3O)n2)cc1 (single isomer, unassigned) [Example 106a]
< 10	10 to 100	10 to 100	10 to 100	100 to 1000	< 10	CC1(O)CCCC1Oc1nc(NC2CCN(S(=O)(=O)CF)CC2)ncc1C#N (single isomer, unassigned) [Example 37a]
< 10	10 to 100	100 to 1000	100 to 1000	100 to 1000	100 to 1000	CC(C)NS(=O)(=O)c1ccc(Nc2ncc(C3CC3)c(O[C@@H]3CCC[C@@H]3O)n2)cc1 (single isomer, unassigned) [Example 134a, cis-4-((5-cyclopropyl-4-((2-hydroxycyclopentyl)oxy)pyrimidin-2-yl)amino)-N-isopropylbenzenesulfonamide]
< 10	< 10	10 to 100	10 to 100	10 to 100	10 to 100	CC(C)NS(=O)(=O)c1ccc(Nc2ncc(C#N)c(OC3CCCC3(C)O)n2)cc1 (single isomer, unassigned) [Example 35a]
< 10	10 to 100	100 to 1000	100 to 1000	100 to 1000	100 to 1000	[2H]C([2H])([2H])NS(=O)(=O)c1ccc(Nc2ncc(CC)c(OC3CCCC3O)n2)cc1 (single isomer, unassigned) [Example 149a]
< 10	< 10	100 to 1000	< 10	100 to 1000	< 10	Cn1cnc(S(=O)(=O)N2CCC(Nc3ncc(C#N)c(OC4CCCC4(C)O)n3)CC2)c1 (single isomer, unassigned) [Example 50a]
< 10	< 10	< 10	< 10	< 10	< 10	CC1(O)CCCCC1Oc1nc(Nc2ccc(S(N)(=O)=O)cc2)ncc1C#N (single isomer, unassigned) [Example 24a]
